Reference: PMC10755728, “Inhibitors of the Elastase LasB for the Treatment of Pseudomonas aeruginosa Lung Infections” (ACS Central Science, 2023)
Like-named read-outs stand apart in the source and are kept apart here.

Key:
COX-1 = molecular target: T1, COX-1 (Ovis aries, UniProt P05979); test: Fluorometric COX-1 inhibitor assay; format: biochemical, human
T1 construct: purchased Abcam (Cambridge, UK)
T1 sequence (P05979 25-600): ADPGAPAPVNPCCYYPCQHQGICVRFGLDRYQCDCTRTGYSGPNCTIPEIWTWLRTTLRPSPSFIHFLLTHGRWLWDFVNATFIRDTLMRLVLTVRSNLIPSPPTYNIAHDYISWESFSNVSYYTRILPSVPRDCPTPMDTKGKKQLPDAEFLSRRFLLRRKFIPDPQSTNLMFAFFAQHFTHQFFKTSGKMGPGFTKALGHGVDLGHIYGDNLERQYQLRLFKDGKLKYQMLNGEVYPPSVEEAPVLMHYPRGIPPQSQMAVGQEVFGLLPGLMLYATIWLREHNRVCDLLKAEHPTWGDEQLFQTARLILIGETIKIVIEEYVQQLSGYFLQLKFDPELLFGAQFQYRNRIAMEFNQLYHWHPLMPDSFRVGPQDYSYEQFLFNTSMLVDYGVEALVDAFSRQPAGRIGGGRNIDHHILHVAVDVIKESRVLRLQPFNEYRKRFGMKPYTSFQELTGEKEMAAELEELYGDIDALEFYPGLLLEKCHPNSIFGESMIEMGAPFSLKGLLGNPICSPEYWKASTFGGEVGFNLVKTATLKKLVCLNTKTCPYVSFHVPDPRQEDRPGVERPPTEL

ColH-PD = ColH-PD (Hathewaya histolytica, UniProt Q46085); test: biochemical; format: biochemical, Clostridium histolyticum; conditions: read-out: % inhibition ColH-PD @1 µM
[1] = test system: Galleria mellonella larvae infected with wt PA14; test: G. mellonella infection model
MMP-1 = molecular target: T2, MMP-1 (Homo sapiens, UniProt P03956); test: MMP-1 inhibition assay; format: biochemical; conditions: read-out: % inhibition MMP-1
T2 construct: purchased AnaSpec (Fremont, CA, USA)
T2 sequence (P03956 100-469): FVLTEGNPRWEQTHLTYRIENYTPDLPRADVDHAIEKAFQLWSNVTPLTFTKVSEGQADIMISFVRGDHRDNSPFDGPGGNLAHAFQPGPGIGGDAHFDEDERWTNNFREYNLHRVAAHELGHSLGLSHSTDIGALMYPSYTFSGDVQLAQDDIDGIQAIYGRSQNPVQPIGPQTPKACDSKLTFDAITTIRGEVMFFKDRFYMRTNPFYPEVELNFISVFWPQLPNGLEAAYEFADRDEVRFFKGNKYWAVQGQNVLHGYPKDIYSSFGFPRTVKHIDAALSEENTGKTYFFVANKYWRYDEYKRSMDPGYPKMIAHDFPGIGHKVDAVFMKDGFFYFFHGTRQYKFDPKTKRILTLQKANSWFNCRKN

[2] = Microsomal stability, minipig liver microsomes; format: in vitro ADME; conditions: Göttingen, pooled liver microsomes
[3] = Metabolic stability in mouse liver S9 fraction; format: in vitro ADME
[4] = Microsomal stability, rat liver microsomes; format: in vitro ADME; conditions: Wistar, pooled liver microsomes
HepG2 = conditions: human, 48 h, 100 µM
Description: (§1) Culturing of HepG2, A549 and HEK293 cells. The human hepatocellular carcinoma cell line HepG2, the lung adenocarcinoma cell line A549 and Human Embryonic (HEK) 293 cells were cultured in Dulbecco's Modified Eagle Medium (DMEM), containing 10% Fetal Bovine Serum
(§2) (FBS) and 1% penicillin-streptomycin mixture. Cells were maintained according to standard cell
(§3) Cytotoxicity assay. An MTT-based assay was employed to evaluate the viability of HepG2,
(§4) HEK293 and A549 cells after challenge with selected LasB inhibitors and performed as described

LasB = molecular target: T3, LasB (Pseudomonas aeruginosa, UniProt Q02RJ6); test: biochemical; format: biochemical
T3 construct: made in house

in vivo = conditions: mice, nebulization 10 mg/kg; for Cmax / Tmax: 10 mg/kg
Description: Up to 5 compounds were dosed per cassette.
anesthetized using ketamine 100 mg/kg and xylazine 10 mg/kg intraperitoneally.
time point) were euthanized at t= 0.5, 2 and 5 h post administration.
10 mg/kg using a Kent Scientific Aeroneb® nebulizer.
Blood was collected from the heart.
blood was collected into Eppendorf tubes coated with 0.5 M EDTA and immediately spun down
at 13,000 rpm for 10 min at 4 °C. The plasma was transferred into a new Eppendorf tube and then
stored at –80 °C until analysis. Then, a broncheoalveolar lavage was conducted using isotonic
sodium chloride solut ion. Lung, kidneys, and liver were aseptically removed and homogenized
using a Polytron tissue homogenizer (Kinematica) in isotonic sodium chloride solution.
samples were aliquoted into Eppendorf tubes and stored at –80 °C until analysis.
spontaneous urine was also collected. Bioanalytical sample preparation.
an AB Sciex QTrap6500+ mass spectrometer. First, a calibration curve was prepared by spiking
Caffeine was used as an internal standard.
min at 2,000 rpm on an Eppendorf MixMate® vortex mixer.
caffeine as internal standard for 5 min at 2000 rpm on an Eppendorf MixMate® vortex mixer.
Then samples (plasma and urine) were spun down at 1 3,000 rpm for 5 min. Supernatants were transferred to standard HPLC -glass vials.
tissue sample (calibration samples, QCs or PK samples) were extracted with 50 µL of methanol
and 1 µL caffeine (concent ration 1 µg/mL in methanol) for 5 min at 800 rpm on an Eppendorf MixMate® vortex mixer. Then samples (BALF, liver, kidney, lung) were spun down at 4,000 rpm
for 40 min at 4 °C. Supernatants were transferred to 96well V -bottom plates (Greiner).
conditions were as follows: column: Agilent Zorbax Eclipse Plus C18, 50x2.1 mm, 1.8 µm;
temperature: 30 °C; injection volume: 5 µL; flow rate: 700 µL/min; solvent A: water + 0.1%
Urea was used to enable calculation of
epithelial lining fluid (ELF) concentrations. Peak areas of each sample and of the corresponding
internal standard were analyzed using MultiQuant 3.0 software (AB Sciex).
respective sample were normalized to the internal standard peak area.
compound were used for qualification.
curve. The accuracy of the calibration curve was determined using QCs independently prepared
on different days. PK parameters were determined using a non-compartmental analysis with

zebrafish embryos = test: Zebrafish embryo toxicity
Description: Zebrafish embryo toxicity. The experiment was performed according to a procedure described
in the literature55 with minor modifications using zebrafish embryos of the AB wild-type line at 1
day post fertilization (dpf).
Zebrafish embryo toxicity.

[5] = Microsomal stability, mouse liver microsomes; format: in vitro ADME; conditions: C57BL6, mouse, pooled liver microsomes
[6] = test system: A549 cells treated with P. aeruginosa PAO1 and PA14 supernatants; test: A549 cells challenged with P. aeruginosa culture supernatants
Description: Cells were maintained according to standard cell
PA14 csn production. The csn of wt PA14 and ΔlasB PA14 was produced as we previously
Validation of the effect of LasB inhibitors on A549 cells in vitro. The experiment was performed
as described previously.32 The Picrosirius red assay was performed by washing the csn-challenged
cells (± inhibitor) 3x with PBS followed by an incubation with Bouin solution (Sigma) at RT for
20 min. The cells were incubated with 0.1% Picrosirius red dye (ab150681) at RT for 2 h. Then,
they were washed once with 0.01 N HCl, and the matrix was dissolved in 0.01 N NaOH. The
absorption was measured at 570 nm using a PHERAstar plate reader (BMG Labtech). By dividing
the absorbance of each sample by the absorbance of the healthy sample, the relative collagen
quantity was determined. For each condition, the experiment was performed three times. To
determine the rescue of A549 cells treated with 5% wt PA14 csn using our compounds, the LasB
inhibitors were used at 2, 0.5, 0.1 and 0.05 µM. The compounds were incubated in F12K medium,
Cell detachment was then evaluated, and a Trypan Blue cell
cells/well were seeded into a flat bottom 96-well plate (Corning™ Costar™) and incubated at 37
were tested against 10% (v/v) P. aeruginosa PAO1 csn diluted in DMEM starting from 10 µM
and 20 µM, respectively. Compound was initially dissolved in DMSO, and a low final assay
concentration of 0.5% (v/v) was applied to minimize the proteolytic effect of DMSO on the
bacterial culture supernatant. In addition, cells were challenged with 10% (v/v) of ΔlasB PAO1 to

[7] = Plasma stability, minipig; format: in vitro ADME; conditions: Göttingen, pooled plasma, species profiling, read-out: Plasma T1/2 Minipig (Göttingen)
MMP-3 = molecular target: T4, MMP-3 (Homo sapiens, UniProt P08254); test: MMP-3 inhibition assay; format: biochemical; conditions: read-out: % inhibition MMP-3
T4 construct: purchased AnaSpec (Fremont, CA, USA)

TACE = molecular target: T5, TACE (Homo sapiens, UniProt P78536); test: TACE inhibitor screening kit; format: biochemical; conditions: read-out: % inhibition TACE
T5 construct: purchased Sigma-Aldrich (Saint Louis, MO)

[8] = Metabolic stability in human liver S9 fraction; format: in vitro ADME
P. aeruginosa PA14 = test: Bacterial growth inhibition assay; format: cell-based, Pseudomonas aeruginosa
Description: Bacterial growth inhibition assay. Assays regarding the determination of the MIC were
performed as described recently for P. aeruginosa PA14.58

3D lung organoids = test: Lung organoid assay; format: cell-based, human
HEK293 = conditions: human, 48 h, 100 µM
Description: as §1, §2, §3, §4

T3 sequence (Q02RJ6 198-498): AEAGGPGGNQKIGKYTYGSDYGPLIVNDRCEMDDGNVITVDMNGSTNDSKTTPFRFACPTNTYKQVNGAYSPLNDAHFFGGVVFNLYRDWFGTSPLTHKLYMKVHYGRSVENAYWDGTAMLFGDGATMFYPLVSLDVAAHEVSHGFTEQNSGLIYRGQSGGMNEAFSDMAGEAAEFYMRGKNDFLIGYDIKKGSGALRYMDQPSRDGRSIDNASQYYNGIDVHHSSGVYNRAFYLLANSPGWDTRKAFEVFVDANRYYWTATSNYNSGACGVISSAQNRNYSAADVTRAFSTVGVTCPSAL
T5 sequence (P78536 215-824): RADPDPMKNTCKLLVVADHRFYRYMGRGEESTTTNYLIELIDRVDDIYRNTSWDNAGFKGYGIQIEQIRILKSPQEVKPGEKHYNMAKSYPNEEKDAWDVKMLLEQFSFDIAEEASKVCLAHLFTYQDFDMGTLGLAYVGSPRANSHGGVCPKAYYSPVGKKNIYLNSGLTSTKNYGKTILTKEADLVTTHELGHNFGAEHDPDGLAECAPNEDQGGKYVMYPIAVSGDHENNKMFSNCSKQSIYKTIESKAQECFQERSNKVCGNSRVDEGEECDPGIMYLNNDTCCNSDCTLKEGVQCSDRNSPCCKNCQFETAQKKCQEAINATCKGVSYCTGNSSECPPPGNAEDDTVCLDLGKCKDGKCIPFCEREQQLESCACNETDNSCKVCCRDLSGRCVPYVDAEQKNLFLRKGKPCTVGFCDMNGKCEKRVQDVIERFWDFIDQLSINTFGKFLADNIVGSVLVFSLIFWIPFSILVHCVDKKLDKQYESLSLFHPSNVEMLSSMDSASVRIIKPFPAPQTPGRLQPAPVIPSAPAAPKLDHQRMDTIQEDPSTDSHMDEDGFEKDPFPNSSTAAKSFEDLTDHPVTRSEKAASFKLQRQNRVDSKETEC
T4 sequence (P08254 100-477): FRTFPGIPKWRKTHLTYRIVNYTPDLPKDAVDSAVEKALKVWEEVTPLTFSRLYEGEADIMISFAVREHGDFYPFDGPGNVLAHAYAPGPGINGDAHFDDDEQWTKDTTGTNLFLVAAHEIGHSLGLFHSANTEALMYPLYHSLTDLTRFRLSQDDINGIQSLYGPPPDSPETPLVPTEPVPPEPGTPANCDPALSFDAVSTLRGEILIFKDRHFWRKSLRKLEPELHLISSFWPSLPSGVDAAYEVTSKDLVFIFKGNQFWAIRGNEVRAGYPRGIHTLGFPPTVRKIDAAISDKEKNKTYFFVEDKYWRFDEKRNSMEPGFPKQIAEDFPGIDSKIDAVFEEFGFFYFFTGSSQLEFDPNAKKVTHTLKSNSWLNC
Chain of ColH-PD (Q46085 331-721 limits assumed): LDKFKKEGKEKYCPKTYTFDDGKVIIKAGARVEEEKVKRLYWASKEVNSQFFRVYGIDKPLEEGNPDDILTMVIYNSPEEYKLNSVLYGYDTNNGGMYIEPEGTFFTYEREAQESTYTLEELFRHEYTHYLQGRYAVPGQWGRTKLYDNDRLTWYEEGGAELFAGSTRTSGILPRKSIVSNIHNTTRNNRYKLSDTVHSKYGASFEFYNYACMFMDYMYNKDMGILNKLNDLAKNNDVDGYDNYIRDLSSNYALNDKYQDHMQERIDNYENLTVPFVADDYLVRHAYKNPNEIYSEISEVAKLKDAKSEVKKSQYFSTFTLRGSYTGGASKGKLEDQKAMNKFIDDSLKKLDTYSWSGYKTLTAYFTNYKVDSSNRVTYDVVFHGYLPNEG

## CC(C)CC(C(=O)Nc1ccc(C(F)(F)F)cc1)P(=O)(O)O (stereo not shown) [Compound 4b]
COX-1
  inhibition at 100 µM: < 10%
ColH-PD
  inhibition at 1 µM: 14 ± 8%
[1]; 1 nmol 4b, 10.7 nmol tobramycin, or both, 17% in the wild type
  survival of larvae infected with wt PA14: 33%
[1]; PBS with 4b, tobramycin or combination of both
  survival in the PBS treated groups (not infected): 100%
MMP-1
  inhibition at 100 µM: 21 ± 1%
[2]
  microsomal CLint: < 11.6 µL/min/mg
[3]
  microsomal CLint at 1 μM: < 5.8 µL/min/mg
[4]
  microsomal CLint: < 11.6 µL/min/mg
HepG2
  % growth inhibition HepG2: 18 ± 11%
LasB; FRET-based assay, read-out: LasB IC50
  IC50: 0.0263 ± 0.0076 µM
LasB; LasB IC50, FRET-based assay
  IC50: ~0.025 µM
LasB; LasB IC50 in presence of 1% pulmonary surfactant, 1% pulmonary surfactant
  IC50: 0.076 ± 0.023 µM
In vivo; male, CD-1, mouse, ELF/plasma, inhaled, read-out: ELF/plasma ratio
  Kp: 6.12
In vivo; male, CD-1, mouse, epithelial lining fluid (ELF), inhaled or intranasal, read-out: Cmax ELF
  Cmax: 19.9 ± 14 µg/mL
In vivo; male, CD-1, mouse, epithelial lining fluid (ELF), inhaled or intranasal, read-out: Tmax ELF
  Tmax: 0.58 ± 0.4 h
In vivo; male, CD-1, mouse, epithelial lining fluid (ELF), inhaled or intranasal, read-out: AUC 0-t ELF
  AUC(0-t): 49.7 ± 16.2 µg·h/mL
In vivo; male, CD-1, mouse, inhaled or intranasal, plasma
  CL/F: 1.24 ± 0.12 L/h/kg
In vivo; male, CD-1, mouse, lung, inhaled or intranasal, read-out: Tmax lung
  Tmax: 0.33 ± 0.1 h
In vivo; male, CD-1, mouse, plasma, inhaled or intranasal, read-out: Cmax plasma
  Cmax: 0.633 ± 0.059 µg/mL
In vivo; male, CD-1, mouse, plasma, inhaled or intranasal, read-out: Tmax plasma
  Tmax: 4 ± 3.5 h
In vivo; male, CD-1, mouse, plasma, inhaled or intranasal
  MRT: 6.8 ± 0.3 h
In vivo; male, CD-1, mouse, plasma, inhaled or intranasal, read-out: AUC 0-t plasma
  AUC(0-t): 8.13 µg·h/mL
In vivo; male, CD-1, mouse, plasma, inhaled or intranasal, read-out: t1/2 plasma (converted)
  half-life: 4 ± 0.3 h
In vivo
  AUC 0-t lung: 249.0 ± 72.9 ng·h/g
  Cmax lung: 78.4 ± 15.9 ng/g
Zebrafish embryos; 12.5 µM
  Survival rate: 100%
Zebrafish embryos; 25 µM
  Survival rate: 100%
Zebrafish embryos; 25 µM, 5 dpf
  Screening observations: 1 nsb
Zebrafish embryos; 50 µM
  Survival rate: 100%
Zebrafish embryos; 50 µM, 5 dpf
  Screening observations: 2 nsb
Zebrafish embryos; 100 μM
  Survival rate: 100%
Zebrafish embryos; 100 µM, 3 dpf
  Screening observations: 1 edema
Zebrafish embryos; 100 µM, 4 dpf
  Screening observations: 1 edema
Zebrafish embryos; 100 µM, 5 dpf
  Screening observations: 1 nsb, 1 edema
[5]
  microsomal CLint: < 11.6 µL/min/mg
[6]; A549 cells, 15% (v/v) wt PA14 csn, 3.15 μM
  reduction of cleavage of collagen: 20%
[6]; PAO1 or PA14 csn
  LasB-related cytotoxicity in csn-treated A549 cells: dose-dependent reduction of LasB-related cytotoxicity
[7]
  half-life: > 4 h
MMP-3
  inhibition at 100 µM: 29 ± 8%
TACE
  inhibition at 100 µM: < 10%
[8]
  microsomal CLint at 1 μM: < 5.8 µL/min/mg
P. aeruginosa PA14; Pseudomonas aeruginosa, PA14, 100 µM compound concentration, read-out: Percent (%) growth inhibition of P. aeruginosa PA14
  inhibition at 100 µM: < 10%
P. aeruginosa PA14; up to 100 μM
  antibacterial activity: do not possess any antibacterial activity
3D lung organoids; 5% PA14 csn, 48 h, MTT
  viability of lung organoids challenged with 5% PA14 csn: improved in a dose-dependent manner
3D lung organoids; concentrations tested up to 100 μM
  toxic effects on nontreated lung organoids: did not have significant toxic effects
HEK293
  % growth inhibition HEK293: 11 ± 1%
